Results: PubChem BioAssay (NCI)
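Five compound concentrations were applied to cells in 96-well plates for 48 hours; endpoints were derived by simple linear interpolation of the resulting dose-response curve. At the GI50, growth is halved. TGI: concentration producing complete growth inhibition.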

Assays:
Assay in all cases: DTP human tumour cell line panel, 48 h
786-0 renal = test system: 786-0 renal
A498 renal = test system: A498 renal
A549 NSCLC = test system: A549 NSCLC
ACHN renal = test system: ACHN renal
BT-549 breast = test system: BT-549 breast
CAKI-1 renal = test system: CAKI-1 renal
CCRF-CEM leukemia = test system: CCRF-CEM leukemia
COLO 205 colon = test system: COLO 205 colon
DU-145 prostate = test system: DU-145 prostate
EKVX NSCLC = test system: EKVX NSCLC
HCC-2998 colon = test system: HCC-2998 colon
HCT-15 colon = test system: HCT-15 colon
HL-60(TB) leukemia = test system: HL-60(TB) leukemia
HOP-62 NSCLC = test system: HOP-62 NSCLC
HOP-92 NSCLC = test system: HOP-92 NSCLC
HS 578T breast = test system: HS 578T breast
HT29 colon = test system: HT29 colon
IGROV1 ovarian = test system: IGROV1 ovarian
K-562 leukemia = test system: K-562 leukemia
KM12 colon = test system: KM12 colon
LOX IMVI melanoma = test system: LOX IMVI melanoma
M14 melanoma = test system: M14 melanoma
MALME-3M melanoma = test system: MALME-3M melanoma
MCF7 breast = test system: MCF7 breast
MDA-MB-231 breast = test system: MDA-MB-231 breast
MDA-MB-435 = test system: MDA-MB-435
MDA-MB-468 breast = test system: MDA-MB-468 breast
MOLT-4 leukemia = test system: MOLT-4 leukemia
NCI-H226 lung = test system: NCI-H226 lung
NCI-H23 lung = test system: NCI-H23 lung
NCI-H460 lung = test system: NCI-H460 lung
NCI-H522 lung = test system: NCI-H522 lung
OVCAR-3 ovarian = test system: OVCAR-3 ovarian
OVCAR-4 ovarian = test system: OVCAR-4 ovarian
OVCAR-5 ovarian = test system: OVCAR-5 ovarian
OVCAR-8 ovarian = test system: OVCAR-8 ovarian
PC-3 prostate = test system: PC-3 prostate
RPMI-8226 leukemia = test system: RPMI-8226 leukemia
RXF 393 renal = test system: RXF 393 renal
SF-268 CNS = test system: SF-268 CNS
SF-295 CNS = test system: SF-295 CNS
SF-539 CNS = test system: SF-539 CNS
SK-MEL-2 melanoma = test system: SK-MEL-2 melanoma
SK-MEL-28 melanoma = test system: SK-MEL-28 melanoma
SK-MEL-5 melanoma = test system: SK-MEL-5 melanoma
SK-OV-3 ovarian = test system: SK-OV-3 ovarian
SN12C renal = test system: SN12C renal
SNB-19 CNS = test system: SNB-19 CNS
SNB-75 CNS = test system: SNB-75 CNS
SR leukemia = test system: SR leukemia
SW-620 colon = test system: SW-620 colon
T-47D breast = test system: T-47D breast
TK-10 renal = test system: TK-10 renal
U251 CNS = test system: U251 CNS
UACC-257 melanoma = test system: UACC-257 melanoma
UACC-62 melanoma = test system: UACC-62 melanoma
UO-31 renal = test system: UO-31 renal

O=C1Nc2cc(Cl)ccc2/C1=C/c1ccc(OCc2ccc(Br)cc2F)cc1
GI50 (786-0 renal): 1.9 µM
TGI (786-0 renal): 3.5 µM
GI50 (A498 renal): 2.23 µM
TGI (A498 renal): 4.59 µM
GI50 (A549 NSCLC): 2.08 µM
TGI (A549 NSCLC): 4.35 µM
GI50 (ACHN renal): 1.92 µM
TGI (ACHN renal): 3.83 µM
GI50 (BT-549 breast): 1.92 µM
TGI (BT-549 breast): 4.26 µM
GI50 (CAKI-1 renal): 1.7 µM
TGI (CAKI-1 renal): 3.46 µM
GI50 (CCRF-CEM leukemia): 3.86 µM
TGI (CCRF-CEM leukemia): 14.6 µM
GI50 (COLO 205 colon): 4.03 µM
TGI (COLO 205 colon): 17 µM
GI50 (DU-145 prostate): 3.39 µM
TGI (DU-145 prostate): 10.1 µM
GI50 (EKVX NSCLC): 3.69 µM
TGI (EKVX NSCLC): 17.1 µM
GI50 (HCC-2998 colon): 15.4 µM
TGI (HCC-2998 colon): 37.7 µM
GI50 (HCT-15 colon): 3.4 µM
TGI (HCT-15 colon): 13 µM
GI50 (HL-60(TB) leukemia): 17.7 µM
TGI (HL-60(TB) leukemia): 53.6 µM
GI50 (HOP-62 NSCLC): 1.9 µM
TGI (HOP-62 NSCLC): 4.21 µM
GI50 (HOP-92 NSCLC): 2.28 µM
TGI (HOP-92 NSCLC): 6.17 µM
GI50 (HS 578T breast): 2.05 µM
TGI (HS 578T breast): 6.6 µM
GI50 (HT29 colon): 4.69 µM
TGI (HT29 colon): 19.5 µM
GI50 (IGROV1 ovarian): 2.43 µM
TGI (IGROV1 ovarian): 6.3 µM
GI50 (K-562 leukemia): 4.03 µM
TGI (K-562 leukemia): 17 µM
GI50 (KM12 colon): 3.54 µM
TGI (KM12 colon): 11.5 µM
GI50 (LOX IMVI melanoma): 1.73 µM
TGI (LOX IMVI melanoma): 3.61 µM
GI50 (M14 melanoma): 2.91 µM
TGI (M14 melanoma): 9.02 µM
GI50 (MALME-3M melanoma): 1.82 µM
TGI (MALME-3M melanoma): 3.83 µM
GI50 (MCF7 breast): 2.11 µM
TGI (MCF7 breast): 14.2 µM
GI50 (MDA-MB-231 breast): 2.33 µM
TGI (MDA-MB-231 breast): 5.92 µM
GI50 (MDA-MB-435): 2.87 µM
TGI (MDA-MB-435): 8.54 µM
GI50 (MDA-MB-468 breast): 2.24 µM
TGI (MDA-MB-468 breast): 4.65 µM
GI50 (MOLT-4 leukemia): 3.98 µM
TGI (MOLT-4 leukemia): 14.4 µM
GI50 (NCI-H226 lung): 2.07 µM
TGI (NCI-H226 lung): 5.53 µM
GI50 (NCI-H23 lung): 1.79 µM
TGI (NCI-H23 lung): 4.08 µM
GI50 (NCI-H460 lung): 2.02 µM
TGI (NCI-H460 lung): 3.74 µM
GI50 (NCI-H522 lung): 1.99 µM
TGI (NCI-H522 lung): 4.89 µM
GI50 (OVCAR-3 ovarian): 2.49 µM
TGI (OVCAR-3 ovarian): 5.08 µM
GI50 (OVCAR-4 ovarian): 1.9 µM
TGI (OVCAR-4 ovarian): 3.98 µM
GI50 (OVCAR-5 ovarian): 8.24 µM
TGI (OVCAR-5 ovarian): 34.3 µM
GI50 (OVCAR-8 ovarian): 3.31 µM
TGI (OVCAR-8 ovarian): 10.4 µM
GI50 (PC-3 prostate): 1.91 µM
TGI (PC-3 prostate): 4.46 µM
GI50 (RPMI-8226 leukemia): 4.41 µM
TGI (RPMI-8226 leukemia): 18.1 µM
GI50 (RXF 393 renal): 2.73 µM
TGI (RXF 393 renal): 9.28 µM
GI50 (SF-268 CNS): 2.67 µM
TGI (SF-268 CNS): 6.35 µM
GI50 (SF-295 CNS): 2.07 µM
TGI (SF-295 CNS): 4.36 µM
GI50 (SF-539 CNS): 1.92 µM
TGI (SF-539 CNS): 3.59 µM
GI50 (SK-MEL-2 melanoma): 7.22 µM
TGI (SK-MEL-2 melanoma): 21.7 µM
GI50 (SK-MEL-28 melanoma): 2.18 µM
TGI (SK-MEL-28 melanoma): 4.92 µM
GI50 (SK-MEL-5 melanoma): 3.47 µM
TGI (SK-MEL-5 melanoma): 12.3 µM
GI50 (SK-OV-3 ovarian): 3.81 µM
TGI (SK-OV-3 ovarian): 13.5 µM
GI50 (SN12C renal): 5.31 µM
TGI (SN12C renal): 19.6 µM
GI50 (SNB-19 CNS): 2.3 µM
TGI (SNB-19 CNS): 5.72 µM
GI50 (SNB-75 CNS): 2.19 µM
TGI (SNB-75 CNS): 7 µM
GI50 (SR leukemia): 2.07 µM
TGI (SR leukemia): 4.45 µM
GI50 (SW-620 colon): 2.02 µM
TGI (SW-620 colon): 4.18 µM
GI50 (T-47D breast): 4.19 µM
TGI (T-47D breast): 18.3 µM
GI50 (TK-10 renal): 2.73 µM
TGI (TK-10 renal): 7.15 µM
GI50 (U251 CNS): 1.92 µM
TGI (U251 CNS): 3.62 µM
GI50 (UACC-257 melanoma): 9.42 µM
TGI (UACC-257 melanoma): 26.3 µM
GI50 (UACC-62 melanoma): 1.82 µM
TGI (UACC-62 melanoma): 3.8 µM
GI50 (UO-31 renal): 1.55 µM
TGI (UO-31 renal): 4.65 µM
